Measurements taken from patent publication US20230087766A1, “METHODS OF REACTIVATING LATENT HUMAN IMMUNODEFICIENCY VIRUS AND RELATED COMPOSITIONS” (priority 2017, published 2023).
Entries after “also recorded” stand apart in the source; their conditions may differ.

Experiments:
Format in all cases: cell-based
[1] = system: latent HIV in resting CD4+ T cells from HIV-infected individuals under ART; assay: Quantitative Viral Outgrowth Assay (QVOA), p24 ELISA; conditions: resting CD4+ T cells from 5 HIV-infected individuals under ART; ex vivo
Method: It was tested whether the histone crotonylation inducer, sodium crotonate, can reactivate latent HIV reservoirs from a patient under ART. Peripheral blood samples were obtained from 5 HIV-infected individuals with undetectable plasma viral loads and higher CD4+ T cell numbers (see Table 1). One million resting CD4+ T cells were treated with IL-2, PHA+IL-2, or IL-2+Na-Cro, and HIV p24 production was measured by QVOA using p24 ELISA as a measure of HIV reactivation.
Quantitative Viral Outgrowth Assay: Peripheral blood mononuclear cells (PBMC) were obtained from HIV-infected individuals on suppressive ART (n=5) by continuous-flow leukopheresis. Isolation of resting CD4+ T cells and quantification of replication competent virus was performed as previously described (see S. Dandekar, et al. Current HIV/AIDS reports 4, 10-15 (2007)). […] Cultures were scored as positive if p24 was detected at day 15 and was increased in concentration at day 19. […]

[2] = system: latent HIV in U1 cells; assay: p24 ELISA in U1 cells; conditions: day 6
Method: (§1) Cell culture: J-Lat Al cells (derived from Jurkat cells harboring HIV LTR-Tat-GFP gene) and U1 cells (promonocytic cell line harboring one copy of HIV genome with defective tat gene) were obtained from NIH AIDS Reagent Program and cultured at 37° C. with 5% CO2 in RPM11640 medium containing 10% FBS and 1% penicillin-streptomycin as previously described (see G. Jiang, et al. PLoS Pathogens 11, e1005066 (2015)).
(§2) For inhibiting ACSS2 and crotonylation, cells were pretreated with ACSS2 inhibitor, AR12 (SELLECK CHEMICALS™, Houston, Tex.), for 30 minutes, followed by Na-Cro treatment for 4 or 18 hours.

[3] = system: J-Lat A1 cells; assay: Cellular viability by flow cytometry of live/dead staining; conditions: Na-Cro 10 mM to 40 mM
Method: An increased concentration of Na-Cro was added in the J-Lat A1 cells, and cellular viability was evaluated by flow cytometry of live/dead staining.

[4] = system: latent HIV in primary CD4+ T cells from HIV-infected patients under suppressive ART; assay: HIV transcription by ddPCR in primary CD4+ T cells from HIV-infected patients; conditions: primary CD4+ T cells of 6 patients; 40 mM Na-Cro or 12 nM PEP005; 6 hours; ddPCR
Method: Panels A-C illustrate that primary CD4+ T cells were treated with […] PMA 2 plus 2 μg/ml ionomycin, 12 nM PEP005, 40 mM Na-Cro, or 12 nM PEP005 combined with 40 mM Na-Cro for 6 hours. Viral transcription from total RNA was analyzed by RT-ddPCR with primers targeting initiation (TAR region) (see panel A), elongation (long LTR) (see panel B), or full transcription (poly A region) (see panel C) of the HIV genome. Panel D illustrates a working model of epigenetic regulation of HIV latency/transcription by histone crotonylation.
To validate this finding in the ex vivo primary CD4+ T cells from patients the peripheral blood samples from 6 HIV-infected patients under suppressive ART were obtained. They had undetectable plasma viral load (<20 copies/ml plasma) and >400 CD4+ T cell number per […] (see Table 1). Primary CD4+ T cells were treated with PMA/Ionomycin, PEP005, Na-Cro, or PEP005 in combination with Na-Cro for 6 hours. HIV transcription following reactivation was measured by digital droplet PCR (ddPCR) targeting TAR region (initiation), long LTR region (elongation), or Poly A region (full transcription) of HIV genome (see G. Jiang, et al. PLoS pathogens 11, e1005066 (2015); P. Kaiser, et al. Journal of virological methods 242, 1-8 (2017); and L. Shan, et al. Journal of Virology 87, 6521-6525 (2013)).
Primary CD4+ T Cell Isolation, Treatment, and Digital Droplet PCR Assays: Peripheral blood samples were obtained from HIV-infected individuals (age ranging from 46-62 years old) on suppressive ART for >8 years (n=6). The plasma viral loads were below the detective level (<20 copies/ml plasma) and the average CD4+ T cell number was 664.4±180.5 cells/ml. The primary CD4+ T cells were isolated using the EASYSEP™ kit ([…]™ Technologies Inc., Vancouver, BC, Canada) as previously described (see G. Jiang, et al. PLoS pathogens 11, el 005066 (2015) and G. Jiang, et al. AIDS 28, 1555-1566 (2014)). The purified CD4+ T cells were plated at a density of 0.5-1×10^6 cells and treated with Control, 200 ng/ml PMA plus 2 μM lonomycin, 12 nM PEP005, 40 mM Na-Cro, or 12 nM PEP005 plus 40 mM Na-Cro for 6 hours. Cell pellets were collected for RNA isolation. Initiation, elongation, or full transcription of HIV was analyzed with ddPCR assays as reported before (see G. Jiang, et al. PLoS pathogens 11, e1005066 (2015); P. Kaiser, et al. Journal of virological methods 242, 1-8 (2017); and L. Shan, et al. Journal of virology 87, 6521-6525 (2013)).

[5] = system: latent HIV (HIV LTR-driven transcription) in J-Lat A1 cells
Method: as §1, §2
Real-Time PCR Analysis: HIV gene expression was measured using real-time PCR in J-Lat Al cells treated with LRAs. Total nucleic acid was extracted using RNEASY™ Kit, genomic DNA digested using DNase I and total RNA reverse transcribed using Superscript III to synthesize cDNA. […] […] TAMRA-3′ (SEQ ID NO:3).

Compound: C/C=C/C(=O)[O-].[Na+] [Na-Cro, sodium crotonate]
- replication-competent HIV recovered (HIV reactivation, QVOA) [1]: four of the five participants
- p24 antigen ([2]; 20 mM Na-Cro): over 500 pg/mL
- p24 antigen ([2]; 40 mM Na-Cro): > 2000 pg/mL
- cell toxicity [3]: not toxic to immune cells; also recorded: Minimal cell toxicity
- elongation of HIV transcripts (long LTR), patients responding [4]: all 6 patients
- full-length transcription of HIV (poly A region), patients responding [4]: 4 of the 6 patients
- initiation of HIV transcription (TAR region), patients responding [4]: all 6 patients
- induction of HIV LTR-driven transcription ([5]; J-Lat A1 and U1 cell cultures): dose-dependent manner
- reactivation of latent HIV by epigenetic modifiers ([5]; J-Lat A1 cells, 30 mM Na-Cro, 500 nM SAHA, 2 μM GSK343 or 5 μM AZA-dc, RT-qPCR): comparable capacity to reactivate latent HIV
- increase in HIV transcription compared to untreated controls ([5]; J-Lat A1 cells, Na-Cro at 40 mM): 12 fold
- HIV reactivation compared to the control ([5]; Na-Cro alone, AR12 experiment (FIG. 3, panel D)): 8 fold
